Test: Hydrogel degradation measured by swelling
Type: physicochemical
Settings: pH 7.4
Procedure: Additionally, degradation was followed by measuring QM as a function of time. MS was measured at specific time points until gels lacked physical integrity. QM was calculated for each time point and normalized to the QM of the non-swollen network at time zero (MG/MD). Initial mesh size (ξ) and crosslink density (vc) were calculated via the Flory-[…] theory.

- Degradation Time: 8.0 ± 0.5 days
Substance: PEG-dithiolpropionate [PEG-DD2]

From patent US12398255B2, “Biocompatible crosslinkers for controlled degradation of polymer hydrogels” (Saint Louis University, priority 2020, dated 2025)
